# Literature values, collected in PMC6625762 (Bioorganic & medicinal chemistry letters, 2019).
substance,measurement,value
NMeAla-Tle-(4S)-4-phenoxy-Pro-(R)-tetrahydronaphth-1-yl-amide,Kd,5 nM
